Data: patent US8729133B2, “Method for treating cancer” (Cornell University, priority 2006, dated 2014)

Legend:
brain metastases = test: Randomized study: whole brain radiotherapy with or without oral L-Arginine hydrochloride in patients with unresectable brain metastases (response, survival); format: in vivo, human
Procedure: (§1) L-Arginine hydrochloride was orally administered five times a week, Monday to Friday, during the radiation therapy (RT) course at a dose of about 10 grams dissolved/mixed with about 100 ml of water and administered to a patient/host from about 15-55 to about 20-65 minutes before each fraction of RT. Radiation therapy was administered to patients using techniques known to one skilled in the art of treating cancer patients. After administering L-Arginine hydrochloride to a patient as discussed above, change in lactate levels in the tumor cells was monitored by localized ^1H NMR spectroscopy and compared to those who received placebo.
Patients with imagenologically proven brain metastases and histologically proven primary or metastatic cancer were eligible for the study. The eligibility criteria included the following: RPA-RTOG class II, measurable brain lesion/s by contrast-enhanced CT or MRI, absolute granulocyte count >2000/mm^3, hemoglobin […] (patients with lower levels were transfused), normal renal (serum creatinine <1.5 mg/dL and 24-h creatinine clearance >60 mL/min) and hepatic functions (aspartate aminotransferase and alanine aminotransferase <2.5 times the upper limit of normal) and no prior treatment for brain metastases. A neurosurgeon examined all eligible patients and their complimentary studies to determine whether their metastases were resectable. Eligible patients with unresectable metastases were randomized.
The present study was performed in accordance with the ethical standards of the Helsinki Declaration. Within two weeks after the diagnosis of brain metastases, eligible patients were randomly assigned to receive whole brain radiotherapy alone (the control group) or L-Arginine monochlorohydrate (L-Arginine Hydrochloride, L-A-HCl) and whole brain radiotherapy. L-Arginine was orally administered, once a day Monday to Friday, during the radiation therapy (RT) course at a dose of about 10 grams, immediately reconstituted with 100 ml of water and given about 55 to 65 minutes before each fraction of RT.
During RT, all patients were irradiated with ^60Co beams. The whole-brain, of all the individuals enrolled in the study, was treated by two lateral fields to a total dose of 32 Gy in 20 fractions of 1.6 Gy each two times a day with a 6 hours interval between treatments (10 days), followed by a 22.4 Gy boost over the evident lesions with the same fractionation schedule (7 days). The spinal cord dose was limited to 40 Gy.
The baseline evaluation included a complete history and physical examination, brain contrast-enhanced CT scans and/or MRI scans, chest radiographs, blood counts, blood chemistry and electrocardiography. A Mini Mental Status Exam (MMSE) was performed for screening intellectual impairment. During the treatment, patients were to be seen three times a week, then weekly for up to one month after finishing radiotherapy, and then monthly until the patient died. All patients were followed up, by the radiation and medical oncology research physicians, without further treatment.
The following criteria defined radiological response and progression. Complete response was defined as a disappearance of all brain lesions seen on contrast-enhanced CT or MRI scans for at least 1 month. Partial response required at least a 50% decrease in brain lesions for at least 1 month. Stable disease was defined as any brain lesion with shrinkage less than 50% or growth less than 25%. Disease progression was defined as any brain lesion in the brain that enlarged more than 25% or any new brain lesion. For measurable disease, standard bi-perpendicular diameters of the two-dimensional tumor image at maximum dimension were applied.
The following criteria defined symptomatic response and progression. Complete response was defined as disappearance of all neurological-related signs or symptoms seen during a physical exam for at least 1 month, with stable or decreasing steroid dose. […]

[1] = system: lactate levels in brain metastases tumors; test: Tumor lactate determination by localized 1H MR spectroscopy before and after oral L-Arginine; format: in vivo, human
Procedure: as §1
Single-voxel MR spectroscopic data were obtained by using a double-SE point-resolved spectroscopy (PRESS) sequence with one-pulse water signal suppression mainly from metabolically active fleshy parts (contrast-enhanced areas) of the lesions, while avoiding contamination from scalp fat. Appropriate automatic shimming and water suppression were achieved by using 4-8-Hz line width, 1-kHz spectral width, and the automated software developed by the manufacturer. Spectroscopic data from cubic volumes of 1.5×1.5×1.5-2×2×3 cm were obtained by using the PRESS sequence with 1500/135 ms (TR/TE), 128-256 averages, 1024 data points, and 4000-Hz spectrum width. In most examinations, a voxel size of 2×2×2 cm3 was employed.
The time domain signal intensity was apodized and processed to remove the residual water signal. Post-processing of the spectroscopic data consisted of frequency shift and phase and linear baseline corrections after Fourier transformation. […] Lactate (Lac) peak was calculated at 1.35 ppm (an inverted β-methyl doublet). […] Lactate values were calculated automatically from the area under the peak by using the standard commercial software program provided by the manufacturer.
L-A-HCl was administered (as stated) to 30 patients with unresectable brain metastases. […] Patients were assessed by brain NMR and/or TC (to asses tumor response) and proton magnetic spectroscopy (to determine the metabolic profile of tumors). […]

[2] = 30 patients with unresectable brain metastases vs 30 placebo

In the case of `Cl.N=C(N)NCCC[C@H](N)C(=O)O` [L-Arginine, S(+)-2-Amino-5-[(aminoiminomethyl)amino]pentanoic acid monohydrochloride], the “survival compared to placebo” value (brain metastases; [2]) is reported as “higher”, the “tumoral response rates compared to placebo” value (brain metastases; [2]) is reported as “higher” and the “Overall Response: Complete” value (brain metastases; RT-Arginine n = 22) is reported as 6 number of patients. For the same compound, the “Overall Response: Partial” value (brain metastases; RT-Arginine n = 22) was 13 number of patients, the “Overall Response: Stable Disease” value (brain metastases; RT-Arginine n = 22) was 2 (9%) number of patients (%) and the “Radiologic Response: Complete” value (brain metastases; RT-Arginine n = 22) was 6 number of patients. For the same compound, the “Radiologic Response: Partial” value (brain metastases; RT-Arginine n = 22) was 13 number of patients, the “Radiologic Response: Progressive Disease” value (brain metastases; RT-Arginine n = 22) was 0 number of patients and the “Radiologic Response: Stable Disease” value (brain metastases; RT-Arginine n = 22) was 2 (9%) number of patients (%). For the same compound, the “Symptomatic Response: Complete” value (brain metastases; RT-Arginine n = 22) was 20 number of patients, the “Symptomatic Response: Partial” value (brain metastases; RT-Arginine n = 22) was 1 number of patients and the “Symptomatic Response: Progressive Disease” value (brain metastases; RT-Arginine n = 22) was 0 (0%) number of patients (%). The “Symptomatic Response: Stable Disease” value (brain metastases; RT-Arginine n = 22) was 1 (5%) number of patients (%), the “Overall Response: Total responses” value (brain metastases; RT-Arginine n = 22, ECOG response guidelines) was 18 (81%) number of patients (%) and the “Symptomatic Response: Total responses” value (brain metastases; RT-Arginine n = 22, about 10 grams orally before each RT fraction) was 21 (95%) number of patients (%). The “Radiologic Response: Total responses” value (brain metastases; RT-Arginine n = 22, contrast-enhanced CT or MRI) was 18 (81%) number of patients (%), the “Overall Response: Progressive Disease” value (brain metastases; RT-Arginine n = 22, not assessed counted as progressive) was 1 (5%) number of patients (%) and the “Radiologic Response: Not assessed” value (brain metastases; RT-Arginine n = 22, patients without follow-up scan) was 1 (5%) number of patients (%). For the same compound, the median survival time (brain metastases; patients with brain metastases, about 10 grams L-Arginine orally, Kaplan-Meier (FIG. 1), placebo 2 months) was 8 months, the “metabolic pattern of the tumors by spectroscopy” value ([1]; about 10 grams orally, in about 60 minutes) was “favorably modified” and the “drop of lactate levels in tumors” value ([1]; brain metastases, about 60 minutes after about 10 grams orally, NMR (FIG. 2), placebo about 10%) was “about 50%”. The “lactate peak in tumor NMR spectrum after vs before administration” value ([1]; brain metastasis, about 60 minutes after about 10 grams orally) was “decrease”.
